Assay results taken from patent US20200146289A1, “Herbicidal pyrimidine compounds” (BASF SE, priority 2017, published 2020).

Columns and labels:
ALOMY [1] = assay: greenhouse post-emergence herbicidal test; assay type: in vivo, Alopecurus myosuroides; conditions: for herbicidal activity: ALOMY, scale 0 to 100; for control of ALOMY: 500 g/ha
From the text: (§1) The seeds of the test plants were sown separately for each species. For the post-emergence treatment, the test plants were first grown to a height of 3 to 15 cm, depending on the plant habit, and only then treated with the active ingredients which had been suspended or emulsified in water. For this purpose, the test plants were either sown directly and grown in the same containers, or they were first grown separately as seedlings and transplanted into the test containers a few days prior to treatment. Depending on the species, the plants were kept at 10-25° C. or 20-35° C., respectively. The test period extended over 2 to 4 weeks. During this time, the plants were tended, and their response to the individual treatments was evaluated. Evaluation was carried out using a scale from 0 to 100. 100 means no emergence of the plants, or complete destruction of at least the aerial moieties, and 0 means no damage, or normal course of growth. A good herbicidal activity is given at values of at least 70 and a very good herbicidal activity is given at values of at least 85. The plants used in the greenhouse experiments were of the following species: [table]

ECHCG [2] = assay: greenhouse post-emergence herbicidal test; assay type: in vivo, Echinocloa crus-galli; conditions: scale 0 to 100
From the text: as §1

SETVI = assay: greenhouse post-emergence herbicidal test; assay type: in vivo, Setaria viridis; conditions: 1000 g/ha, scale 0 to 100
From the text: as §1

APESV = assay: greenhouse pre-emergence herbicidal test; assay type: in vivo, Apera spica-venti; conditions: for herbicidal activity: APESV, scale 0 to 100; for control of APESV: 125 g/ha
From the text: (§2) The seeds of the test plants were sown separately for each species. For the pre-emergence treatment, the active ingredients, which had been suspended or emulsified in water, were applied directly after sowing by means of finely distributing nozzles. The containers were irrigated gently to promote germination and growth and subsequently covered with transparent plastic hoods until the plants had rooted. This cover caused uniform germination of the test plants, unless this had been impaired by the active ingredients. Depending on the species, the plants were kept at 10-25° C. or 20-35° C., respectively. The test period extended over 2 to 4 weeks. During this time, the plants were tended, and their response to the individual treatments was evaluated. Evaluation was carried out using a scale from 0 to 100. 100 means no emergence of the plants, or complete destruction of at least the aerial moieties, and 0 means no damage, or normal course of growth. A good herbicidal activity is given at values of at least 70 and a very good herbicidal activity is given at values of at least 85. The plants used in the greenhouse experiments were of the following species: [table]

ECHCG [3] = assay: greenhouse pre-emergence herbicidal test; assay type: in vivo, Echinocloa crus-galli; conditions: scale 0 to 100
From the text: as §2

AGSST [4] = assay: greenhouse post-emergence herbicidal test; assay type: in vivo, Agrostis stolonifera; conditions: 2000 g/ha, scale 0 to 100
From the text: as §1

POAAN [5] = assay: greenhouse post-emergence herbicidal test; assay type: in vivo, Poa annua; conditions: 2000 g/ha, scale 0 to 100
From the text: as §1

AGSST [6] = assay: greenhouse pre-emergence herbicidal test; assay type: in vivo, Agrostis stolonifera; conditions: 2000 g/ha, scale 0 to 100
From the text: as §2

POAAN [7] = assay: greenhouse pre-emergence herbicidal test; assay type: in vivo, Poa annua; conditions: 2000 g/ha, scale 0 to 100
From the text: as §2

AVEFA = assay: greenhouse post-emergence herbicidal test; assay type: in vivo, Avena fatua; conditions: for control of AVEFA: 500 g/ha; for herbicidal activity: AVEFA, scale 0 to 100
From the text: as §1

AMARE = assay: greenhouse post-emergence herbicidal test; assay type: in vivo, Amaranthus retroflexus; conditions: for control of AMARE: 500 g/ha; for herbicidal activity: 1000 g/ha, AMARE, scale 0 to 100
From the text: as §1

ALOMY [8] = assay: greenhouse pre-emergence herbicidal test; assay type: in vivo, Alopecurus myosuroides; conditions: 125 g/ha
From the text: as §2

MATIN = assay: greenhouse post-emergence herbicidal test; assay type: in vivo, Matricaria inodora; conditions: 2000 g/ha, scale 0 to 100
From the text: as §1

| SMILES | herbicidal activity (ALOMY [1]; 1000 g/ha) | herbicidal activity (ECHCG [2]; 1000 g/ha) | herbicidal activity (APESV; 1000 g/ha) | herbicidal activity (ECHCG [3]; 1000 g/ha) | control of AVEFA (AVEFA) | herbicidal activity (ALOMY [1]; 2000 g/ha) | herbicidal activity (APESV; 2000 g/ha) | further results |
| --- | --- | --- | --- | --- | --- | --- | --- | --- |
| O=C(O)c1nc(C2CC2)ncc1-c1cc(C(F)(F)F)ccc1Br [Ex.6] | very good (a very good herbicidal activity is given at values of at least 85) | very good (a very good herbicidal activity is given at values of at least 85) | very good (a very good herbicidal activity is given at values of at least 85) | very good (a very good herbicidal activity is given at values of at least 85) | – | – | – | herbicidal activity (SETVI): very good (a very good herbicidal activity is given at values of at least 85) |
| COC(=O)c1nc(C2CC2)ncc1-c1cc(C(F)(F)F)ccc1Br [Ex.5] | – | – | – | – | – | – | – | herbicidal activity (AGSST [4]): very good (a very good herbicidal activity is given at values of at least 85); herbicidal activity (POAAN [5]): very good (a very good herbicidal activity is given at values of at least 85); herbicidal activity (AGSST [6]): good (A good herbicidal activity is given at values of at least 70); herbicidal activity (POAAN [7]): very good (a very good herbicidal activity is given at values of at least 85) |
| O=C(O)c1nc(C2CC2)ncc1-c1cc(C(F)F)ccc1Cl [Ex.8] | very good (a very good herbicidal activity is given at values of at least 85) | – | very good (a very good herbicidal activity is given at values of at least 85) | very good (a very good herbicidal activity is given at values of at least 85) | 90% | – | – | control of ALOMY (ALOMY [1]): 90%; control of AMARE (AMARE): 100%; herbicidal activity (AMARE): very good (a very good herbicidal activity is given at values of at least 85); herbicidal activity (SETVI): very good (a very good herbicidal activity is given at values of at least 85) |
| O=C(O)c1nc(C2CC2)ncc1-c1cc(C(F)(F)F)ccc1Cl [Ex.4, 5-[2-chloro-5-(trifluoromethyl)phenyl]-2-cyclopropyl-pyrimidine-4-carboxylic acid] | very good (a very good herbicidal activity is given at values of at least 85) | very good (a very good herbicidal activity is given at values of at least 85) | very good (a very good herbicidal activity is given at values of at least 85) | very good (a very good herbicidal activity is given at values of at least 85) | 90% | – | – | control of ALOMY (ALOMY [1]): 90%; control of AMARE (AMARE): 80%; herbicidal activity (AMARE): very good (a very good herbicidal activity is given at values of at least 85); control of APESV (APESV): 100%; control of ALOMY (ALOMY [8]): 90% |
| COC(=O)c1nc(C2CC2)ncc1-c1cc(C(F)(F)F)ccc1Cl [Ex.3, Methyl 5-[2-chloro-5-(trifluoromethyl)phenyl]-2-cyclopropyl-pyrimidine-4-carboxylate] | very good (a very good herbicidal activity is given at values of at least 85) | very good (a very good herbicidal activity is given at values of at least 85) | very good (a very good herbicidal activity is given at values of at least 85) | very good (a very good herbicidal activity is given at values of at least 85) | 85% | – | – | herbicidal activity (AVEFA; 1000 g/ha): very good (a very good herbicidal activity is given at values of at least 85); control of APESV (APESV): 90%; control of ALOMY (ALOMY [8]): 85% |
| COC(=O)c1nc(C2CC2)ncc1-c1cc(C(F)(F)F)ccc1C [Ex.13] | – | – | – | – | – | very good (a very good herbicidal activity is given at values of at least 85) | very good (a very good herbicidal activity is given at values of at least 85) | herbicidal activity (ECHCG [3]; 2000 g/ha): very good (a very good herbicidal activity is given at values of at least 85) |
| O=C(O)c1nc(C2CC2)ncc1-c1cc(C(F)(F)F)cc(Br)c1Br [Ex.9] | – | – | – | – | – | – | good (A good herbicidal activity is given at values of at least 70) | herbicidal activity (POAAN [5]): very good (a very good herbicidal activity is given at values of at least 85); herbicidal activity (MATIN): very good (a very good herbicidal activity is given at values of at least 85); herbicidal activity (POAAN [7]): very good (a very good herbicidal activity is given at values of at least 85) |
| COC(=O)c1nc(C2CC2)ncc1-c1cc(OC(F)(F)F)ccc1F [Ex.11] | – | – | – | – | – | very good (a very good herbicidal activity is given at values of at least 85) | very good (a very good herbicidal activity is given at values of at least 85) | herbicidal activity (AVEFA; 2000 g/ha): very good (a very good herbicidal activity is given at values of at least 85); herbicidal activity (ECHCG [3]; 2000 g/ha): very good (a very good herbicidal activity is given at values of at least 85) |
| Cc1ccc(C(F)(F)F)cc1-c1cnc(C2CC2)nc1C(=O)O [Ex.14] | – | – | – | – | – | very good (a very good herbicidal activity is given at values of at least 85) | very good (a very good herbicidal activity is given at values of at least 85) | herbicidal activity (AVEFA; 2000 g/ha): very good (a very good herbicidal activity is given at values of at least 85); herbicidal activity (ECHCG [2]; 2000 g/ha): very good (a very good herbicidal activity is given at values of at least 85); herbicidal activity (ECHCG [3]; 2000 g/ha): very good (a very good herbicidal activity is given at values of at least 85) |
| COC(=O)c1nc(C2CC2)ncc1-c1cc(C(F)F)ccc1Cl [Ex.7] | very good (a very good herbicidal activity is given at values of at least 85) | very good (a very good herbicidal activity is given at values of at least 85) | very good (a very good herbicidal activity is given at values of at least 85) | very good (a very good herbicidal activity is given at values of at least 85) | 90% | – | – | herbicidal activity (AVEFA; 1000 g/ha): very good (a very good herbicidal activity is given at values of at least 85) |
| O=C(O)c1nc(C2CC2)ncc1-c1cc(OC(F)(F)F)ccc1F [Ex.12] | – | – | – | – | – | very good (a very good herbicidal activity is given at values of at least 85) | very good (a very good herbicidal activity is given at values of at least 85) | herbicidal activity (AVEFA; 2000 g/ha): good (A good herbicidal activity is given at values of at least 70) |
